From the SangsterLogP compilation

With `CC(=O)OCC(COc1ncc(-c2ccncc2)cc1C#N)OC(C)=O` (stereo not given) the logP was 2.51. Compound `CC(=O)OCCCNc1ccc(-c2ccncc2)cn1` has a logP of 2.42. In the case of `CC(=O)OCCCOc1ccc(-c2ccncc2)cn1`, the logP is reported as 2.48. `CCC(=O)OCCCOc1ccc(-c2ccncc2)cn1` gave a logP of 3.07. `CC(=O)COC(C)CNc1ccc(-c2ccccc2)c(C)n1` (stereo not given) gave a logP of 3.74. Work on `O=C(OCCNc1ccc(-c2ccncc2)cn1)c1cccnc1` yielded a logP of 2.58. `CC(=O)OCCNc1ccc(-c2ccncc2)cn1` showed a logP of 2. Compound `CCC(=O)OCCCNc1ccc(-c2ccncc2)cn1` has a logP of 2.87. For `CC(=O)N1CCN(c2ccc(-c3ccncc3)cn2)CC1`, the logP was 2.04. `CC(=O)OCCCNc1ccc(-c2ccncc2)c(C)n1` gave a logP of 2.91. Compound `O=C(OCCNc1ccc(-c2ccncc2)cn1)c1ccccc1` has a logP of 3.84. In the case of `CC(=O)OCCOc1ccc(-c2ccncc2)cn1`, the logP is reported as 1.92. `CC(=O)OCCN(CCOC(C)=O)c1ncc(-c2ccncc2)cc1C#N` gave a logP of 2.44. `CCC(=O)OCCNc1ccc(-c2ccncc2)cn1` showed a logP of 2.47. With `CCC(=O)N1CCN(c2ccc(-c3ccncc3)cn2)CC1` the logP was 2.39. Work on `CC(=O)OCCNc1ccc(-c2ccncc2)c(C)n1` yielded a logP of 2.59. `CC(=O)N1CCN(c2ccc(-c3ccccc3)c(C)n2)CC1` showed a logP of 4.08. With `O=C(OCCCNc1ccc(-c2ccncc2)cn1)c1ccccc1` the logP was 4.06. Work on `CCC(=O)OCCOc1ccc(-c2ccncc2)c(C)n1` yielded a logP of 3.21. `CC(=O)OCCOc1ccc(-c2ccccc2)c(C)n1` gave a logP of 4.
